From paper PMC10284550, “Accelerating drug target inhibitor discovery with a deep generative foundation model” (Science Advances, 2023)
Where two headings read alike, the source gives them in different places.

Assays:
[1] = system: SARS-CoV-2 pseudotyped lentivirus; experiment: microbe, parasite or virus in culture; format: cell-based
[2] = system: SARS-CoV-2 Victoria live virus (SARS-CoV-2/human/AUS/VIC01/2020); experiment: microbe, parasite or virus in culture; format: cell-based
[3] = system: SARS-CoV-2 Alpha live virus; experiment: microbe, parasite or virus in culture; format: cell-based
[4] = system: SARS-CoV-2 pseudotyped lentivirus (Victoria); experiment: microbe, parasite or virus in culture; format: cell-based; conditions: read-out: IC50 pseudoviral neutralization, Victoria
[5] = system: SARS-CoV-2 Omicron live virus; experiment: microbe, parasite or virus in culture; format: cell-based; conditions: Severe acute respiratory syndrome coronavirus 2, read-out: IC50 live virus neutralization, Omicron
[6] = system: SARS-CoV-2 pseudotyped lentivirus (Alpha); experiment: microbe, parasite or virus in culture; format: cell-based; conditions: read-out: IC50 pseudoviral neutralization, Alpha
[7] = system: SARS-CoV-2 pseudotyped lentivirus (Delta); experiment: microbe, parasite or virus in culture; format: cell-based; conditions: read-out: IC50 pseudoviral neutralization, Delta
[8] = system: SARS-CoV-2 pseudotyped lentivirus (Beta); experiment: microbe, parasite or virus in culture; format: cell-based; conditions: read-out: IC50 pseudoviral neutralization, Beta
[9] = system: SARS-CoV-2 Delta live virus; experiment: microbe, parasite or virus in culture; format: cell-based
[10] = system: SARS-CoV-2 pseudotyped lentivirus (Omicron); experiment: microbe, parasite or virus in culture; format: cell-based; conditions: read-out: IC50 pseudoviral neutralization, Omicron
[11] = system: SARS-CoV-2 pseudotyped lentivirus (Gamma); experiment: microbe, parasite or virus in culture; format: cell-based; conditions: read-out: IC50 pseudoviral neutralization, Gamma
[12] = system: SARS-CoV-2 Gamma live virus; experiment: microbe, parasite or virus in culture; format: cell-based; conditions: Severe acute respiratory syndrome coronavirus 2, read-out: IC50 live virus neutralization, Gamma
SARS-CoV-2 M^pro [13] = target: T1, SARS-CoV-2 M^pro (Severe acute respiratory syndrome coronavirus 2, UniProt P0DTD1); experiment: biochemical
SARS-CoV-2 = conditions: cited from earlier work
SARS-CoV-2 M^pro [14] = target: T1, SARS-CoV-2 M^pro; format: binding
[15] = Severe acute respiratory syndrome coronavirus 2, HEK293T/17, read-out: IC50, neutralization of SARS-CoV-2 pseudotyped lentivirus
[16] = Severe acute respiratory syndrome coronavirus 2, read-out: IC50, neutralization of Victoria live virus

`C#CCN1CCC(CCNc2ccnc3ccccc23)CC1` [GEN727] showed an IC50 [1, 15] of 2.8 µM, an IC50 ([1]; read-out: IC50, neutralization of spike-containing pseudovirus across all VOCs) of 0.7 to 2.8 µM and an IC50 [2, 16] of 34.8 ± 2 µM. For the same molecule, the IC50 ([2]; Severe acute respiratory syndrome coronavirus 2, read-out: IC50 live virus neutralization, Victoria) was 31.5 ± 2.6 µM, the IC50 ([2]; read-out: IC50 live virus neutralization, Victoria) was less than 50 µM and the IC50 ([3]; Severe acute respiratory syndrome coronavirus 2, read-out: IC50 live virus neutralization, Alpha) was 33.8 ± 1.1 µM. The IC50 ([3]; read-out: IC50 live virus neutralization, Alpha) was less than 50 µM, the IC50 [4] was 2.8 ± 1.6 µM and the IC50 [5] was 130 ± 1.9 µM. For the same molecule, the IC50 [6] was 2.4 ± 0.4 µM, the IC50 [7] was 2.2 ± 0.1 µM and the IC50 [8] was 1.1 ± 0.8 µM. It also gave an IC50 ([9]; Severe acute respiratory syndrome coronavirus 2, read-out: IC50 live virus neutralization, Delta) of 39.1 ± 7.4 µM, an IC50 ([9]; read-out: IC50 live virus neutralization, Delta) of less than 50 µM and an IC50 [10] of 2.7 ± 0.5 µM. For the same molecule, the IC50 [11] was 0.7 ± 0.3 µM and the IC50 [12] was 55.4 ± 8.9 µM.

Molecule `CN(c1nc(N2CCOCC2)nc(N2CCc3ccccc32)n1)C1CCC(NS(N)(=O)=O)CC1` (stereo not shown) [GXA112] has an IC50 (SARS-CoV-2 M^pro [13]) of 34.2 µM.

In the case of `OC1CCN(c2nc(Nc3ccc4c(c3)CCC4)nc(N3CCC(F)(F)CC3)n2)CC1` [GXA70], the IC50 (SARS-CoV-2 M^pro [13]) is reported as 43 µM.

For `CS(=O)(=O)c1cccc(C[C@H](NC(=O)c2c(Cl)cc3c(c2Cl)CCN(C(=O)c2ccc4ccoc4c2)C3)C(=O)O)c1` [Lifitegrast], the “antiviral potency against SARS-CoV-2 in vitro” value (SARS-CoV-2) is listed as “dose-dependent antiviral potency”.

`NC(=O)c1ccc(N)cc1OC1CCN(CC(F)(F)F)CC1` [GEN626] showed an IC50 [1, 15] greater than 50 µM and an IC50 [2, 16] greater than 50 µM.

`CS(=O)(=O)c1ccccc1Oc1ccc(-c2ccc(S(N)(=O)=O)cc2)cc1` [GEN725] gave an IC50 [1, 15] of 18.7 µM and an IC50 [2, 16] greater than 50 µM.

In the case of `Cn1nnnc1C1(c2cccc(Cl)c2)CCC1` [GEN777], the IC50 [1, 15] is reported as greater than 50 µM and the IC50 [2, 16] is reported as greater than 50 µM.

With `CN(Cc1ccc(Cl)c(Cl)c1)c1ccc(S(N)(=O)=O)cn1` [Z68337194] the “Binding to M^pro seen in crystal structure” value (SARS-CoV-2 M^pro [14]) was “bound in the active site pocket” and the IC50 (SARS-CoV-2 M^pro [13]) was 35.5 µM.
